Key:
[1] = tested on: phospholipase C production by P. aeruginosa; experiment: virulence factor production: phospholipase C; assay type: cell-based, Pseudomonas aeruginosa; conditions: Compound I 1339 μM, MMS + 10 μM FeCl3, anaerobic, 24 h
[2] = tested on: P. aeruginosa strain PAO1; experiment: MIC of tobramycin and colistin with and without Compound I; assay type: cell-based, Pseudomonas aeruginosa; conditions: Compound I 1339 μM, MMS + 10 μM FeCl3, aerobic and anaerobic atmospheres
Experimental: The minimal inhibitory concentrations (MICs) of the aminoglycosides gentamycin and tobramycin are determined under aerobic and anaerobic conditions in the presence of no added iron or 30 μM iron, with or without Compound I, e.g. and/or with varying concentrations of Compound I). MICs are determined in MMS+10 μM FeCl3 supplemented with Compound I (1339 μM) (solid line) and without Compound I (dashed line). Values shown represent the mean±SD of a representative experiment with each condition tested in duplicate. The […] inhibitory concentrations (MICS) of two antibiotics commonly used antibiotics to treat CF individuals, tobramycin and colistin, are tested against P. aeruginosa. This is done in MMS+10 μM FeCl3 with and without Compound I (1339 μM) under aerobic and anaerobic atmospheres (FIG. 4).

[3] = solubility in MMS medium; assay type: physicochemical; conditions: MMS medium (pH 7.0)
[4] = tested on: exotoxin A (ETA) production by P. aeruginosa; experiment: virulence factor production: exotoxin A; assay type: cell-based, Pseudomonas aeruginosa; conditions: Compound I 1339 μM, MMS + 10 μM FeCl3, anaerobic, 24 h
[5] = tested on: P. aeruginosa; experiment: planktonic growth in borosilicate glass tube model (OD 570 nm); assay type: cell-based, Pseudomonas aeruginosa
Experimental: Growth with or without Compound I, e.g. at concentrations achieved in peripheral blood, under aerobic and anaerobic conditions with no added iron, 10, 30 and 50 μM iron. […] The effect of bacterial growth is determined using a standard method that involves inoculation of aliquots, e.g. 500 μL, of around 10^6 bacteria in minimal media with succinate into borosilicate glass tubes, e.g. 12×75 mm, that are them incubated under aerobic and anaerobic conditions, e.g. at 37° C. Each experiment is undertaken in triplicate and each borosilicate tube is removed at regular intervals, e.g. 0, 4, 8, 12, 16, 20 and 24 hours and the optical density at 570 nm of the culture used as an indicator of the level of growth. Anaerobic culture conditions are generated using the Anaerogen™ (Oxoid) system. For anaerobic experiments, parallel cultures are set up so that cultures are not transiently exposed to oxygen, i.e. seven parallel cultures to allow sampling at the required times. Different concentrations of Compound I are assessed for their effect on aerobic and anaerobic (A) growth and (B) biofilm levels. Medium used is MMS supplemented with 0 or 10 μM FeCl3, as indicated (37° C., 24 h). Values shown represent the mean±SD of one representative experiment with 3 tubes per experiment. Different concentrations of Compound I are assessed for their effect on aerobic and anaerobic (A) growth and (B) biofilm levels. Medium used is MMS supplemented with 10 μM FeCl3 (37° C., 24 h). […] The effects of Compound I on planktonic growth and biofilm development re assessed in the short-term borosilicate glass tube biofilm model. In this model, a biofilm is grown on a glass surface, and this is subsequently stained and solubilized. The optical density (OD: 570 nm) of the solution corresponds with the level of biofilm development. Using this model, bacterial growth and biofilm levels are determined after incubation (24 h, 37° C.) in minimal medium supplemented with succinate (MMS)+10 μM FeCl3 (aerobic and anaerobic atmospheres).

[6] = tested on: P. aeruginosa biofilm; experiment: short-term borosilicate glass tube biofilm model (OD 570 nm); assay type: cell-based, Pseudomonas aeruginosa
Experimental: For this purpose, two short-term biofilm models relevant for the early stages of biofilm formation are used: borosilicate tubes and cover-slip method. In both models, the biofilm growth is studied with or without Compound I under either aerobic or anaerobic conditions and with or without added iron, i.e. 0, 10, 30 and 50 μM iron. The anti-biofilm effects of Compound I are looked at according to the standard methods, i.e. optical density, confocal imaging software, […] program, to allow analysis of biofilm structure in a 3 dimensional perspective. The imaging system and use of BacLight LIVE/DEAD staining (Molecular Probes) in the cover-slip experiments allow to look at the effects on both bacterial microcolonies and biofilm structure. Different concentrations of Compound I are assessed for their effect on aerobic and anaerobic (A) growth and (B) biofilm levels. Medium used is MMS supplemented with 0 or 10 μM FeCl3, as indicated (37° C., 24 h). Values shown represent the mean±SD of one representative experiment with 3 tubes per experiment. Different concentrations of Compound I are assessed for their effect on aerobic and anaerobic (A) growth and (B) biofilm levels. Medium used is MMS supplemented with 10 μM FeCl3 (37° C., 24 h). […] The effect of Compound I (1339 μM) on biofilm development in different iron concentrations, without Compound I (black columns) and with Compound I, 1339 μM (grey columns). […] The effects of Compound I on planktonic growth and biofilm development re assessed in the short-term borosilicate glass tube biofilm model. In this model, a biofilm is grown on a glass surface, and this is subsequently stained and solubilized. The optical density (OD: 570 nm) of the solution corresponds with the level of biofilm development. Using this model, bacterial growth and biofilm levels are determined after incubation (24 h, 37° C.) in minimal medium supplemented with succinate (MMS)+10 μM FeCl3 (aerobic and anaerobic atmospheres). […] It is investigated whether Compound I is impairing anaerobic biofilm development by directly reducing the level of iron in the medium, or whether it is acting by an iron-independent mechanism. Compound I at a concentration of 1339 μM is tested to see if it continued to impair anaerobic biofilm development as the concentration of iron is increased in the culture medium.

[7] = Compound I 0-100 μM, aerobic, MMS + 10 μM FeCl3, 24 h, 37° C.
[8] = Compound I 0-100 μM, anaerobic, MMS + 10 μM FeCl3, 24 h, 37° C.
[9] = higher concentration of Compound I (up to 6695 μM, via PEG 400), aerobic
[10] = higher concentration of Compound I (up to 6695 μM, via PEG 400), anaerobic, P<0.05

O=C(O)c1ccc(-n2nc(-c3ccccc3O)nc2-c2ccccc2O)cc1 [Compound I, 4-[3,5-Bis-(2-hydroxyphenyl)-[1,2,4]-triazol-1-yl]benzoic acid]
effect on iron-induced increase of phospholipase C production [1]: increase is negated
effect on MIC of colistin [2]: does not alter the MIC
effect on MIC of tobramycin [2]: does not alter the MIC
solubility in MMS medium [3]: low solubility
effect on iron-induced increase of exotoxin A (ETA) production [4]: increase is negated
effect on aerobic growth [5, 7]: does not impair
effect on anaerobic growth [5, 8]: does not impair
effect on growth, higher concentration, aerobic [5, 9]: not under aerobic conditions
effect on growth, higher concentration, anaerobic [5, 10]: significantly impair
effect on aerobic biofilm development [6, 7]: does not impair
effect on anaerobic biofilm development [6, 8]: does not impair
impairment of anaerobic biofilm development as iron concentration is increased ([6]; Compound I 1339 μM, anaerobic, increasing iron levels in culture medium): becomes less effective
effect on biofilm levels, higher concentration, aerobic [6, 9]: not under aerobic conditions
effect on biofilm levels, higher concentration, anaerobic [6, 10]: significantly impair

Source: patent US8309590B2, “Triazol compounds for treating biofilm formation” (Novartis AG, priority 2007, dated 2012)
